Measurements published in US11224614B2, “Compositions and methods for increasing iron intake in a mammal” (Solvotrin Therapeutics Limited, priority 2014, dated 2022).

How the values were obtained:
[1] = In-vivo gastrointestinal tolerability (modified GSRS, Bristol Stool Chart), cross-over; parameters: species or system human; settings: modified GSRS 0-3, Bristol Stool Chart; p=0.02 and p=0.03
Procedure: In a separate study using random, blinded, prospective allocation to beads prepared in accordance with the invention or FeSO4.7H2O in identical size 0 gelatin capsules, in-vivo gastrointesinal tolerability was assessed in a cross-over design. The test articles were taken in the morning after fasting for 10 hours with baseline and 2 hour fasting blood draws. After 2 hours fasting, food was taken as normal and over the following 24 hours, a modified Gastrointestinal Symptom Rating Scale (GSRS) was completed. This rates the following symptoms as 0=none, 1=mild, 2=moderate, 3=severe: • Abdominal pain/cramps • Nausea/vomiting • Abdominal bloating • Borborygmus (abdominal rumbling) • Flatulence/wind
In addition the products were taken on 3 consecutive days and the Bristol Stool Chart was used to assess constipation/diarrhoea. Positive score changes from baseline normality (=0) indicated constipation.

[2] = Simulated intestinal dissolution, pH 6.6 with pancreatin and bile acids; assay type: physicochemical; settings: pH 6.6 over 1 hour, FIG. 5
Procedure: A solution of iron (II) sulfate in water (10 mM) was serially diluted using pH 1.8 KCl buffer. Aliquots (100 μl) of the diluted solutions were added to a 96-well plate containing 100 μl of 1,10-phenanthroline (5 mM). The plate was read at 490 nm on a multiwall plate reader in order to construct a calibration curve. Dissolution samples were diluted ten-fold typically at pH 1.6 into phenanthroline (5 mM) and the samples read rapidly under N2 blanketing.
A 50 mg quantity of beads was transferred to a vial containing 10M HCl (10 ml) and left overnight at room temperature. The resulting solution was shaken and then a 100 μl aliquot was transferred into 900 μl of 10M HCl. A 100 μl aliquot of the diluted solution was added to a 96-well plate containing 1M sodium thiocyanate (100 μl). Absorbance was measured at 450 nm on a multiwell plate reader. The concentration of the iron III was estimated by reference to a series of iron III standard solutions.
An accurately weighed sample (approximately 50 mg) of microbeads was transferred into a three necked vessel into which had been placed 15 ml pH 6.6 buffers (containing 0.1 M sodium bicarbonate, 10 mg/ml bile acid extract, 1.85 mg/ml pancreatin, adjust to pH 6.6 with 1M HCl) at 37° C. Generally, at 1, 15, 30, 45, 60 and occasionally at 90, 120 min time points, samples were taken for iron (II) and iron (III) measurement. […]

[3] = In-vivo efficacy: randomised double-blind cross-over, serum iron over 0-6 hours in fasting subjects; settings: primary endpoint, p=0.017
Procedure: We evaluated the formulation in a randomised, double-blind, controlled with a 28 day cross-over to obtain a minimum of 6 paired evaluable healthy subjects with serum ferritin <100 ng/mL for comparison of the invention versus FeSO4.
In the analyses, comparisons between groups were conducted using paired sample t-tests for continuous variables and Wilcoxon's Rank Order tests for non-normal distributions. Shapiro-Wilks tests for normality were used to confirm assumptions that primary and secondary endpoints in the study population come from a normal distribution. If assumptions of normality were not possible, log-transformation was used or Wilcoxon's Rank Order tests were applied.
Subjects returned to the study site (within two weeks of Visit 1) for the first intervention day (Visit 2), after fasting since 10 pm the previous night. Subjects were pre-randomised into one of the two treatment groups with a washout period of four weeks between treatment phases: • Group 1: beads prepared in accordance with the invention, followed by FeSO4 • Group 2: FeSO4, followed by beads prepared in accordance with the invention
A blood sample was collected immediately after drinking the supplement and at 2 hours, 4 hours and 6 hours after dosing. […] Ferritin and haemoglobin were also assessed. […]

ferrous sulfate [FeSO4]
symptoms scores for abdominal pain/cramps, nausea, flatulence and constipation [1]: Significantly higher symptoms scores
iron II and total iron (ferrous and ferric) profile in dissolution [2]: undergoes oxidation and precipitates as ferric hydroxides
serum iron Trough to Peak Differential (TPD) over 0-6 hours, median [3]: 9.7 µmol/L
